From PubChem BioAssay (NCI)
Several values for one entry are separate records, joined by “and”; a condition that tells them apart may be missing. Equal values may be shown once.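 Test compounds were applied to cells in 96-well plates for 48 hours at 5 doses. The concentration for 50% growth inhibition is given as GI50. TGI: total growth inhibition.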

What follows are molecules tested on RXF 393 renal (assay: inhibition of tumour cell growth, NCI panel, 48 h).

Compound | GI50 | TGI
c1ccc(Sc2ccc(Cc3nc4cc5ccccc5cc4[nH]3)cc2)cc1 | 21200 nM | > 100 µM
CCc1nc2cc(F)c(/C=C/C(=O)NO)cc2c(=O)n1CCc1ccccc1 | 230 nM | 0.731 µM
CC1=C(/C=C/Cl)CC(Cl)C(C)(Cl)C1 (stereo not given) | – | 71.3 µM
C=C1C(=O)O[C@H]2[C@H]1CC/C(COC(=O)NCCCCNC(=O)OC/C1=C/CC[C@@]3(C)O[C@H]3[C@H]3OC(=O)C(=C)[C@@H]3CC1)=C\CC[C@@]1(C)O[C@@H]21 | 1440 nM | 3.36 µM
O=C(Nc1cc(Cl)c(Cl)cc1Cl)C(=O)C1C(=O)NC(=S)NC1=O | – | > 100 µM
CCCCC(CC)COC(=O)C[N+](C)(C)CCOC(c1ccccc1)c1ccccc1 (stereo not given) | 1480 nM | 3.34 µM
CCOC(=O)/C(C)=C(/O)C(=O)OCC | – | > 100 µM
CCCCNC1CCCCC[C@H]1O (stereo not given in full) | – | > 100 µM
COc1cc(/C=C/c2ccc(OC)c(O)c2)cc(OC)c1 | – | 3.88 µM
Cc1cc(NC(=S)SCc2ccc(F)cc2)c([N+](=O)[O-])cc1C | – | 82.9 µM
O=C(Nc1ccccc1-c1nc2ccccc2[nH]c1=O)c1ccccc1 | – | 43.6 µM
CC1=[N+]([O-])c2ccccc2C(=O)C1=O | – | > 100 µM
NC(=O)c1cc(Cl)ccc1NC(=O)/C=C/c1ccccc1 | 2190 nM | 6.53 µM
CC12OC(C(=O)C13CC3)C1C(=O)c3ccc4c(ccc5ccccc54)c3C(=O)C12 (stereo not given) | 22500 nM | 61.8 µM
CNC(=S)/N=C(\N)N(C)C | – | > 100 µM
CC(=O)C1Cn2c(nc3ccccc32)C[Se]1 (stereo not given) | – | 5.2 µM
COc1cc(Cc2nccc3cc(OC)c(OC)cc23)c(C(C)=O)cc1OC | > 750000 nM | 300 µM and > 750 µM
Nc1ccccc1C#C/C=C\C#Cc1ccccc1N | 16800 nM | 47.6 µM
CN(C)CCC1(C2=CCCC2)CC/C(=C\c2ccc(Cl)cc2)C1=O (stereo not given) | – | 10.9 µM
CC1=CC(C)(C)N=C2SC(c3ccc(N)cc3)=NN12 | – | > 100 µM
c1cnn(CN(Cn2cccn2)Cn2cccn2)c1 | – | > 100 µM
O=C1C2C3C=C4c5ccccc5N(c5ccccc5)C4(C2C(=O)N1c1ccc([N+](=O)[O-])cc1)[C@H]1C(=O)N(c2ccc([N+](=O)[O-])cc2)C(=O)[C@@H]31 (stereo not given in full) | – | > 100 µM

What follows are molecules tested on OVCAR-8 ovarian (assay: inhibition of tumour cell growth, NCI panel, 48 h).

Compound | GI50 | TGI
CC1(C)C(=O)/C(=C\c2cccnc2)C[C@]2(C)[C@H]3CC[C@@H]4[C@H]5[C@H](C(=O)/C=C/c6cccnc6)CC[C@]5(C(=O)O)CC[C@@]4(C)[C@]3(C)CC[C@@H]12 | 3.5 µM | > 100 µM
COc1cc2ncnc(-n3ncc4cc(NC(=O)Nc5ccccc5)ccc43)c2cc1OC | 5.17 µM | 28.3 µM
COc1ccc(C(=O)c2cc(OC)c(OC)c(OC)c2)cc1/C=C/C(=O)c1ccc(F)cc1 | 3.7 µM | 37.8 µM
OCC1OC(n2cnc3c2NC=NC[C@H]3O)C(Cl)C1O (stereo not given in full) | – | > 100 µM
COc1ccc(C2=C(Cl)c3cc(OC)c(OC)cc3C2Cl)cc1 (stereo not given) | – | 50.6 µM
COc1ccc(-c2[nH]c3ccc(OC)cc3c2/C=C(\C#N)S(=O)(=O)c2ccccc2)cc1 | 2.97 µM | > 35.2 µM
O=c1cc(NCC(O)CN2CCCC2)n(Cc2ccccc2)c(=O)n1Cc1ccccc1 (stereo not given) | > 100 µM | > 100 µM
c1ccc(Sc2ccc(Cc3nc4cc5ccccc5cc4[nH]3)cc2)cc1 | 7.46 µM | > 92.1 µM
CCc1nc2cc(F)c(/C=C/C(=O)NO)cc2c(=O)n1CCc1ccccc1 | 0.287 µM | 2.24 µM
CC1=C(/C=C/Cl)CC(Cl)C(C)(Cl)C1 (stereo not given) | – | > 100 µM
COc1cc2c(cc1OCCCCC(=O)Nc1cc3c4ccccc4ccc3c3ccccc13)N=C[C@@H]1CCCN1C2=O | 7.27 µM | 20 µM
C=C1C(=O)O[C@H]2[C@H]1CC/C(COC(=O)NCCCCNC(=O)OC/C1=C/CC[C@@]3(C)O[C@H]3[C@H]3OC(=O)C(=C)[C@@H]3CC1)=C\CC[C@@]1(C)O[C@@H]21 | 2.18 µM | 8.26 µM
COc1ccc(-c2cc(-c3cc(C)cc(Br)c3O)no2)cc1 | – | > 100 µM
COc1ccc(-c2nc3ccccn3c2/C=C/C(=O)c2cc(OC)c(OC)c(OC)c2)cc1OC | 2.83 µM | 11.1 µM
COc1cc2c3c(n(CCCN)c(=O)c2cc1OC)-c1ccc(C#N)cc1C3=O | 5.54 µM | 24.9 µM
O=C(Nc1cc(Cl)c(Cl)cc1Cl)C(=O)C1C(=O)NC(=S)NC1=O | – | > 100 µM
CCCCC(CC)COC(=O)C[N+](C)(C)CCOC(c1ccccc1)c1ccccc1 (stereo not given) | 4.02 µM | 17.5 µM

Compound | GI50 | TGI
CCOC(=O)/C(C)=C(/O)C(=O)OCC | – | > 100 µM
CCCCNC1CCCCC[C@H]1O (stereo not given in full) | – | > 100 µM
COc1cc(/C=C/c2ccc(OC)c(O)c2)cc(OC)c1 | – | 36.1 µM
Cc1cc(NC(=S)SCc2ccc(F)cc2)c([N+](=O)[O-])cc1C | – | 38.6 µM
COc1ccc(C(=O)c2cc(C)c(OC)c(C)c2)cc1OC(=O)CCl | < 0.01 µM | > 100 µM
O=C(Nc1ccccc1-c1nc2ccccc2[nH]c1=O)c1ccccc1 | – | 66.1 µM
CC1=[N+]([O-])c2ccccc2C(=O)C1=O | – | > 100 µM
NC(=O)c1cc(Cl)ccc1NC(=O)/C=C/c1ccccc1 | 4.7 µM | > 100 µM
CC12OC(C(=O)C13CC3)C1C(=O)c3ccc4c(ccc5ccccc54)c3C(=O)C12 (stereo not given) | 30.4 µM | > 100 µM
CNC(=S)/N=C(\N)N(C)C | – | > 100 µM
CC(=O)C1Cn2c(nc3ccccc32)C[Se]1 (stereo not given) | – | 13.3 µM
COc1cc(Cc2nccc3cc(OC)c(OC)cc23)c(C(C)=O)cc1OC | – | 3 µM
Nc1ccccc1C#C/C=C\C#Cc1ccccc1N | 28.1 µM | 74.7 µM
CN(C)CCC1(C2=CCCC2)CC/C(=C\c2ccc(Cl)cc2)C1=O (stereo not given) | – | 25.3 µM
CC1=CC(C)(C)N=C2SC(c3ccc(N)cc3)=NN12 | – | > 100 µM
c1cnn(CN(Cn2cccn2)Cn2cccn2)c1 | – | > 100 µM
O=C1C2C3C=C4c5ccccc5N(c5ccccc5)C4(C2C(=O)N1c1ccc([N+](=O)[O-])cc1)[C@H]1C(=O)N(c2ccc([N+](=O)[O-])cc2)C(=O)[C@@H]31 (stereo not given in full) | – | > 100 µM

These molecules were tested on CAKI-1 renal (assay: inhibition of tumour cell growth, NCI panel, 48 h).

Compound | GI50 | TGI
CC1(C)C(=O)/C(=C\c2cccnc2)C[C@]2(C)[C@H]3CC[C@@H]4[C@H]5[C@H](C(=O)/C=C/c6cccnc6)CC[C@]5(C(=O)O)CC[C@@]4(C)[C@]3(C)CC[C@@H]12 | 1.66 µM | 3.38 µM
COc1cc2ncnc(-n3ncc4cc(NC(=O)Nc5ccccc5)ccc43)c2cc1OC | 2.08 µM | 12.1 µM
COc1ccc(C(=O)c2cc(OC)c(OC)c(OC)c2)cc1/C=C/C(=O)c1ccc(F)cc1 | 2.78 µM | 14.6 µM
OCC1OC(n2cnc3c2NC=NC[C@H]3O)C(Cl)C1O (stereo not given in full) | – | > 100 µM
COc1ccc(C2=C(Cl)c3cc(OC)c(OC)cc3C2Cl)cc1 (stereo not given) | – | 34.6 µM
COc1ccc(-c2[nH]c3ccc(OC)cc3c2/C=C(\C#N)S(=O)(=O)c2ccccc2)cc1 | 4.22 µM | > 100 µM
O=c1cc(NCC(O)CN2CCCC2)n(Cc2ccccc2)c(=O)n1Cc1ccccc1 (stereo not given) | > 100 µM | > 100 µM
c1ccc(Sc2ccc(Cc3nc4cc5ccccc5cc4[nH]3)cc2)cc1 | 11.7 µM | 48.8 µM
CCc1nc2cc(F)c(/C=C/C(=O)NO)cc2c(=O)n1CCc1ccccc1 | 0.305 µM | 3.12 µM
CC1=C(/C=C/Cl)CC(Cl)C(C)(Cl)C1 (stereo not given) | – | > 100 µM
COc1cc2c(cc1OCCCCC(=O)Nc1cc3c4ccccc4ccc3c3ccccc13)N=C[C@@H]1CCCN1C2=O | 3.44 µM | 13.1 µM
C=C1C(=O)O[C@H]2[C@H]1CC/C(COC(=O)NCCCCNC(=O)OC/C1=C/CC[C@@]3(C)O[C@H]3[C@H]3OC(=O)C(=C)[C@@H]3CC1)=C\CC[C@@]1(C)O[C@@H]21 | 10.8 µM | 23 µM
COc1ccc(-c2cc(-c3cc(C)cc(Br)c3O)no2)cc1 | – | 24 µM
COc1ccc(-c2nc3ccccn3c2/C=C/C(=O)c2cc(OC)c(OC)c(OC)c2)cc1OC | 1.39 µM | 20.2 µM
COc1cc2c3c(n(CCCN)c(=O)c2cc1OC)-c1ccc(C#N)cc1C3=O | 34.9 µM | > 100 µM
O=C(Nc1cc(Cl)c(Cl)cc1Cl)C(=O)C1C(=O)NC(=S)NC1=O | – | > 100 µM
CCCCC(CC)COC(=O)C[N+](C)(C)CCOC(c1ccccc1)c1ccccc1 (stereo not given) | 16.8 µM | 31.9 µM
CCOC(=O)/C(C)=C(/O)C(=O)OCC | – | > 100 µM
